Assay results as given in US20080293749A1, “Pyrrolidine(thi)ones Substituted by Heterocyclic Substituents in The 3-Position” (Gruenenthal GmbH, priority 2005, published 2008).
Values after ≈ are worked out from the molar mass of the structure shown.

What was measured:
[1] = test system: IL-12 production of LPS-activated monocytes; assay: Inhibition of IL-12 production of LPS-activated human monocytes (sandwich ELISA of culture supernatants); format: cell-based; details: human CD14-positive monocytes, 1 h preincubation with test substance, 10 μg/ml LPS from E. coli, 24 hours; for IC50: Monocyte
Description: (§1) Stimulation of human monocytes with lipopolysaccharide for secretion of IL-10 and IL-12:
(§2) Human monocytes were isolated from peripheral blood mononuclear cells (PBMC), which were obtained from heparinized whole blood by means of a Ficoll density gradient centrifugation. For this, the PBMC were incubated with a monoclonal antibody which is directed against the monocyte-specific surface molecule CD14 and to which superparamagnetic microbeads (Miltenyi Biotech, Bergisch Gladbach) are coupled. For positive selection of the labelled monocytes from the cell mixture of the PBMC, the entire cell suspension was applied to a column with a ferromagnetic carrier matrix and this was placed in a magnetic field. The cells loaded with microbeads were thereby bound to the carrier matrix, and non-labelled cells passed through the column and were discarded. After removing the matrix from the magnetic field, the antibody-laden cells were eluted by rinsing the now demagnetized column with buffer. The purity of this CD14-positive monocyte population obtained in this way is about 95-98%. These monocytes were incubated in a density of 10^6 cells/ml of culture medium (RPMI, supplemented with 10% foetal calf serum) with the test substances, dissolved in DMSO, at 37° C. and 5% CO2 for one hour. 10 μg/ml of LPS from E. coli were then added. After 24 hours, cell-free culture supernatants were taken and tested for the content of IL-10 and IL-12.
(§3) The concentration of IL-12 and IL-10 in the cell culture supernatants was determined by means of sandwich ELISAs using two anti-IL-12 and, respectively, IL-10 monoclonal antibodies (Biosource Europe, Fleurus, Belgium). A reference standard curve with human IL-10 and, respectively, IL-12 was included. The detection limit of the ELISAs was 15 pg/ml.

[2] = test system: IL-10 production of LPS-activated monocytes; assay: Increase in IL-10 production of LPS-activated human monocytes (sandwich ELISA of culture supernatants); format: cell-based; details: human CD14-positive monocytes, 1 h preincubation with test substance, 10 μg/ml LPS from E. coli, 24 hours; for EC200: Monocyte
Description: as §1, §2, §3

[3] = Pharmacokinetics after intravenous administration to rats (plasma concentration/time curves); format: in vivo; details: 10 mg/kg each, both compounds given together, estimated from the FIGURE
Description: Volumes of 2 ml/kg were administered intravenously to rats through the tail vein. After defined times, blood samples were taken from the retro-orbital plexus and plasma obtained. Plasma concentrations of both compounds were determined using valid bioanalytical methods.

SMILES	IC50 [1]	EC200 [2]	distribution volume [3]	melting point	Inhibition of IL-12 production IC50 [1]	Increase in IL-10 production EC200 [2]
O=C1CC(N2C=Nc3cc(F)cc(Cl)c3C2)C(=O)N1 (centres unmarked) [Example 1, 3-(5-chloro-7-fluoro-4H-quinazolin-3-yl)-pyrrolidine-2,5-dione]	1.5 mg/L (≈ 5.33 µM)	4 µg/mL				
O=C1CC(N2C=Nc3cc(Cl)cc(F)c3C2)C(=O)N1 (centres unmarked) [Example 2, 3-(7-chloro-5-fluoro-4H-quinazolin-3-yl)-pyrrolidine-2,5-dione]	1.4 mg/L (≈ 4.97 µM)	1 µg/mL				
O=C1CC(N2C=Nc3cc(F)ccc3C2)C(=O)N1 (centres unmarked) [Example 3, 3-(7-fluoro-4H-quinazolin-3-yl)-pyrrolidine-2,5-dione]	0.13 mg/L (≈ 0.526 µM)	0.4 µg/mL	0.26 L/kg			
O=C1CC(N2C=Nc3cc(F)cc(F)c3C2)C(=O)N1 (centres unmarked) [Example 4, 3-(5,7-difluoro-4H-quinazolin-3-yl)-pyrrolidine-2,5-dione]	0.107 mg/L (≈ 0.403 µM)	0.62 µg/mL				
Cc1cccc2c1CN(C1CC(=O)NC1=O)C=N2 (centres unmarked) [Example 8b, 3-(5-methyl-4H-quinazolin-3-yl)-pyrrolidine-2,5-dione]	7.3 mg/L (≈ 30 µM)	> 50 µg/mL		221 to 224 °C		
O=C1CC(N2C=Nc3cc4ccccc4cc3C2)C(=O)N1 (centres unmarked) [Example 8c, 3-(4H-benzo[q]quinazolin-3-yl)-pyrrolidine-2,5-dione]					4 mg/L	>50000 ng/mL
O=C1CC(N2C=Nc3cc(F)c(F)cc3C2)C(=O)N1 (centres unmarked) [Example 8d, 3-(6,7-difluoro-4H-quinazolin-3-yl)-pyrrolidine-2,5-dione]	0.715 mg/L (≈ 2.7 µM)	> 50 µg/mL				
O=C1CC(N2C=Nc3cc(Cl)ccc3C2)C(=O)N1 (centres unmarked) [Example 8g, 3-(7-chloro-4H-quinazolin-3-yl)-pyrrolidine-2,5-dione]	0.62 mg/L (≈ 2.35 µM)	1 µg/mL		194 °C		
COc1ccc2c(c1)N=CN(C1CC(=O)NC1=O)C2 (centres unmarked) [Example 9b, 3-(7-methoxy-4H-quinazolin-3-yl)-pyrrolidine-2,5-dione]	15 mg/L (≈ 57.9 µM)	16 µg/mL		174 to 184 °C		
O=C1CC(N2C=Nc3cccc(Cl)c3C2)C(=O)N1 (centres unmarked) [Example 10a, 3-(5-chloro-4H-quinazolin-3-yl)-pyrrolidine-2,5-dione]	0.303 mg/L (≈ 1.15 µM)	16 µg/mL		218 °C		
O=C1CC(N2C=Nc3ccc(Cl)cc3C2)C(=O)N1 (centres unmarked) [Example 10c, 3-(6-chloro-4H-quinazolin-3-yl)-pyrrolidine-2,5-dione]	1.17 mg/L (≈ 4.44 µM)	> 50 µg/mL		166 °C		
O=C1CC(N2C=Nc3ccccc3C2)C(=O)N1 (centres unmarked) [Example 11a, 3-(4H-quinazolin-3-yl)-pyrrolidine-2,5-dione]	0.6 mg/L (≈ 2.62 µM)	5 µg/mL		168 to 174 °C		
O=C1CC(N2C=Nc3cccc(F)c3C2)C(=O)N1 (centres unmarked) [Example 11b, 3-(5-fluoro-4H-quinazolin-3-yl)-pyrrolidine-2,5-dione]	0.514 mg/L (≈ 2.08 µM)	5.6 µg/mL		184 to 191 °C		
COc1cccc2c1CN(C1CC(=O)NC1=O)C=N2 (centres unmarked) [Example 12a, 3-(5-methoxy-4H-quinazolin-3-yl)-pyrrolidine-2,5-dione]	1.8 mg/L (≈ 6.94 µM)	> 50 µg/mL				
O=C1CC(N2C=Nc3cccc([N+](=O)[O-])c3C2)C(=O)N1 (centres unmarked) [Example 14, 3-(5-nitro-4H-quinazolin-3-yl)-pyrrolidine-2,5-dione]	5.71 mg/L (≈ 20.8 µM)	20 µg/mL				
CC1=Nc2ccccc2CN1C1CC(=O)NC1=O (centres unmarked) [Example 15b, 3-(2-methyl-4H-quinazolin-3-yl)-pyrrolidine-2,5-dione]	4 mg/L (≈ 16.5 µM)	> 50 µg/mL		72 to 75 °C		
CC1=Nc2cc(Cl)ccc2CN1C1CC(=O)NC1=O (centres unmarked) [Example 15bb, 3-(7-chloro-2-methyl-4H-quinazolin-3-yl)-pyrrolidine-2,5-dione]	0.419 mg/L (≈ 1.51 µM)	5.6 µg/mL		153 to 155 °C		
CC1=Nc2cc(F)ccc2CN1C1CC(=O)NC1=O (centres unmarked) [Example 15cc, 3-(7-fluoro-2-methyl-4H-quinazolin-3-yl)-pyrrolidine-2,5-dione]	6 mg/L (≈ 23 µM)	20 µg/mL				
CC1=Nc2cc(F)cc(F)c2CN1C1CC(=O)NC1=O (centres unmarked) [Example 15e, 3-(5,7-difluoro-2-methyl-4H-quinazolin-3-yl)-pyrrolidine-2,5-dione]	0.52 mg/L (≈ 1.86 µM)	3 µg/mL		176 to 178 °C		
CC1=Nc2cccc(Br)c2CN1C1CC(=O)NC1=O (centres unmarked) [Example 15h, 3-(5-bromo-2-methyl-4H-quinazolin-3-yl)-pyrrolidine-2,5-dione]	4 mg/L (≈ 12.4 µM)	> 50 µg/mL				
CC1=Nc2cccc(Cl)c2CN1C1CC(=O)NC1=O (centres unmarked) [Example 15i, 3-(5-chloro-2-methyl-4H-quinazolin-3-yl)-pyrrolidine-2,5-dione]	0.884 mg/L (≈ 3.18 µM)	15 µg/mL		163 to 170 °C		
CC1=Nc2cc(F)cc(Cl)c2CN1C1CC(=O)NC1=O (centres unmarked) [Example 15j, 3-(5-chloro-7-fluoro-2-methyl-4H-quinazolin-3-yl)-pyrrolidine-2,5-dione]	0.521 mg/L (≈ 1.76 µM)	5 µg/mL		179 to 181 °C		
CC1=Nc2cccc(F)c2CN1C1CC(=O)NC1=O (centres unmarked) [Example 15l, 3-(5-fluoro-2-methyl-4H-quinazolin-3-yl)-pyrrolidine-2,5-dione]	2 mg/L (≈ 7.66 µM)	5.6 µg/mL		185 °C		
CC1=Nc2cc(F)c(F)cc2CN1C1CC(=O)NC1=O (centres unmarked) [Example 15u, 3-(6,7-difluoro-2-methyl-4H-quinazolin-3-yl)-pyrrolidine-2,5-dione]	1.8 mg/L (≈ 6.45 µM)	> 50 µg/mL		183 to 185 °C		
CC1=Nc2ccc([N+](=O)[O-])cc2CN1C1CC(=O)NC1=O (centres unmarked) [Example 15z, 3-(2-methyl-6-nitro-4H-quinazolin-3-yl)-pyrrolidine-2,5-dione]				170 to 175 °C		
O=C1CCC(N2C(=O)c3ccccc3C2=O)C(=O)N1 (centres unmarked) [Thalidomide, thalidomide, reference compound]	0.07 mg/L (≈ 0.271 µM)	20 µg/mL				
O=C1CC(N2C(=O)c3ccccc3C2=O)C(=O)N1 (centres unmarked) [XXVIII = C1, 2-(2,5-dioxo-pyrrolidin-3-yl)-isoindole-1,3-dione, reference compound]	> 50 mg/L					no increase
